This note sets out measurements from patent publication US20250066377A1, “AMINO CHROMEN-2-ONE MODULATORS OF POLRMT” (Pretzel Therapeutics, Inc., priority 2021, published 2025).

This assay concerns the target POLRMT (Homo sapiens (Human), UniProt O00411). The assay is described as follows: POLRMT homogeneous TR-FRET mitochondrial transcription assay. The settings on record: inhibition of POLRMT; TR-FRET detection of 407 bp RNA transcript; 7.5 nM POLRMT, 15 nM TFB2M, 30 nM TFAM, 60 minutes at 37° C. The assay is classed as biochemical. The protocol:
The inhibitory activity of the compounds of the present invention against POLRMT were determined by assays based on Bergbrede, T., et al., “An adaptable high-throughput technology enabling the identification of specific transcription modulators,” SLAC Discov., 22, 378-386 (2017).
The ability of some compounds of the present invention to inhibit POLRMT were determined in a homogeneous TR-FRET Assay using high-throughput screening in a 384-well plate format. This method is used to monitor the activity of mitochondrial transcription through measurement of its product, a 407 bp long RNA transcript. Detection of the product is facilitated by hybridization of two DNA-oligonucleotide probes to specific and adjacent sequences within the RNA product sequence. Upon annealing of the probes, two fluorophores are coupled directly to an acceptor nucleotide probe (ATTO647, 5′), or introduced via a coupled streptavidin with a biotinylated donor nucleotide probe (Europium cryptate) that is brought into sufficient proximity to serve as a fluorescence-donor-acceptor pair. Thus, a FRET signal at 665 nm is generated upon excitation at 340 nm.
Proteins used as transcription factors (POLRMT: NP_005026.3, TFAM: NP_003192.1, TFB2M: NP_071761.1) are diluted from their stocks to working concentrations of 1 μM, 20 μM and 4 μM respectively, in a dilution buffer containing 20 mM Tris-HCl (pH 8.0), 200 mM NaCl, 10% (v/v) glycerol, 1 mM Dithiothreitol (DTT), 0.5 mM EDTA.
DNA template is a pUC18 plasmid with the mitochondrial light strand promotor sequence (1-477) cloned between HindIII and BamHI sites. The DNA template is restriction linearized proximal to the promotor 3′-end (pUC-LSP).
The reaction mixture (10 uL) containing 7.5 nM POLRMT, 15 nM of TFB2M, 30 nM of TFAM, 0.5 nM of DNA template and 500 μM nucleotide triphosphate mix (NTPs) in a reaction buffer (containing 10 mM Tris-HCl (pH 7.5), 10 mM MgCl2, 40 mM NaCl, 10 mM DTT, 0.005% (w/v) Tween-20, 160 units/ml Rnase inhibitor and 0.1 mg/mL BSA) are dispensed to compounds in microplates, using a Thermo Multidrop® dispenser, and incubated at 37° C. in a VWR INCU-Line incubator for 60 minutes after mixing. No nucleotide triphosphate mix is added to negative control samples. Microplates with compounds to be tested in the assay are prepared from 10 mM compound stocks in 100% DMSO, equal amounts of DMSO without any compound are added to positive control and negative control samples.
During the incubation, a mix of the detection reagents is prepared in a buffer such that the enzymatic reaction is terminated due to chelating of Mg-ions and increased ionic strength, containing 50 mM Tris-HCl (pH 7.5), 700 mM NaCl, 20 mM EDTA, and 0.01% (w/v) Tween-20. Europium-streptavidin is pre-incubated with a 200-fold molar excess of a random sequence oligonucleotide to block unspecific binding of oligo, for two hours at ambient temperature in the dark. Afterwards, the blocked Europium-streptavidin is kept on ice until use.
At the end of the enzymatic reaction time, 5 μL detection oligo mix in the detection buffer is added, and assay plates are mixed and kept at ambient temperature for one hour, protected from light. The concentration of the Acceptor nucleotide oligo (e.g., ATTO647N-5′-[…]-3′) and Donor nucleotide oligo (e.g., bio-5′-AACACATCTCT(-bio)GCCAAACCCCA-bio-3′) in each assay well is 1 nM, and 3 nM, respectively.
After incubation with oligo mix, 5 μL of pre-blocked Europium-streptavidin reagent is dispensed to each assay well, assay plates are again mixed and kept at ambient temperature for one hour, protected from light.
The generated signal is measured with BMG Pherastar microtiter plate reader with a TRF light unit, using excitation at 340 nm, an integration time of 200 μs, and a delay time of 100 μs, before detection at 620 nm and 665 nm. The ratio of donor- and acceptor-fluorescence is used as a measure of the generated transcript product (i.e. enzymatic activity).
On the technique in general: TR-FRET usually uses a lanthanide donor and a delayed reading to cut background.

pIC50: −log10 of the molar value.

Chain of POLRMT (O00411 42-1230): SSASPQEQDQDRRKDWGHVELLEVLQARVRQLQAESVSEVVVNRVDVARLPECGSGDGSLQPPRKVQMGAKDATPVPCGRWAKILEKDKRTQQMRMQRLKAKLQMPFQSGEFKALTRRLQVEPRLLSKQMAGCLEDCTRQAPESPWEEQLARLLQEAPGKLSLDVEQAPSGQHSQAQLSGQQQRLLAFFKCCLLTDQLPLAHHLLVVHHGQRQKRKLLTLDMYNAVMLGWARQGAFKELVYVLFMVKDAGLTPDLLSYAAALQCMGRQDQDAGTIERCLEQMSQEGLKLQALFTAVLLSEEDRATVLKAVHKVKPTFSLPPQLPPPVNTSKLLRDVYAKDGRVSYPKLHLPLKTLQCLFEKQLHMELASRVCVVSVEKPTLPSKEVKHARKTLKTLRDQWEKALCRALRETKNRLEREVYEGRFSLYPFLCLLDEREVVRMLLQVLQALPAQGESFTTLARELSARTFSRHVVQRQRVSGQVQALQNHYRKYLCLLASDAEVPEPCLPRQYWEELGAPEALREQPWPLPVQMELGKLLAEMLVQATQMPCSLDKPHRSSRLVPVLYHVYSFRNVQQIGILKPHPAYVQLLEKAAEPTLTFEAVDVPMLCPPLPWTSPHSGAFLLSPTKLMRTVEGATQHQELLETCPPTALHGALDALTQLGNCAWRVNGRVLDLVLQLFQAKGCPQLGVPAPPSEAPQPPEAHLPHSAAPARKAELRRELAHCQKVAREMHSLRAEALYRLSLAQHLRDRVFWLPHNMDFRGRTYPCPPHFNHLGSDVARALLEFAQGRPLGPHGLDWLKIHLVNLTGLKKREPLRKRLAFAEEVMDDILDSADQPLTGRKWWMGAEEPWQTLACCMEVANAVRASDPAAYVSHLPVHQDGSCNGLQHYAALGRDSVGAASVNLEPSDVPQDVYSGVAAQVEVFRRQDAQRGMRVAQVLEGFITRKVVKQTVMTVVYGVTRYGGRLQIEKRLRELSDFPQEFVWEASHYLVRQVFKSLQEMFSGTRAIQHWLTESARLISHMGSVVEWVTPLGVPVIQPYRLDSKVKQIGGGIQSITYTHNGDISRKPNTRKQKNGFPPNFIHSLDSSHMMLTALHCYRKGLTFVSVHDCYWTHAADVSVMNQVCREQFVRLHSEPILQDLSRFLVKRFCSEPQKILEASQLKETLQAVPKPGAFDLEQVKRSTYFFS

Consider `COC1CCN(c2ccc3c(-c4ccccc4C)cc(=O)oc3n2)C1` (racemic) [Example 07, 7-(3-methoxypyrrolidin-1-yl)-4-(o-tolyl)-2H-pyrano[2,3-b]pyridin-2-one], for which the pIC50 (commonly the negative decadic logarithm of the IC50, by convention in mol/L) was 6.40. The compound `COCC1CCN(c2ccc3c(-c4ccccc4C)cc(=O)oc3n2)C1` (racemic) [Example 12, 7-(3-(methoxymethyl)pyrrolidin-1-yl)-4-(o-tolyl)-2H-pyrano[2,3-b]pyridin-2-one] had a pIC50 of 6.05. With `Cc1ccccc1-c1cc(=O)oc2nc(N3CCC(C)(O)C3)ccc12` (racemic) [Example 13, 7-(3-hydroxy-3-methylpyrrolidin-1-yl)-4-(o-tolyl)-2H-pyrano[2,3-b]pyridin-2-one], the negative-log IC50 (pIC50) is 6.52. The same measure for `Cc1ccccc1-c1cc(=O)oc2nc(N3CCC(C(N)=O)C3)ccc12` (racemic) [Example 16, 1-(2-oxo-4-(o-tolyl)-2H-pyrano[2,3-b]pyridin-7-yl)pyrrolidine-3-carboxamide]: 5.70; for `Cc1ccccc1-c1cc(=O)oc2nc(N3CCOCC3C)ccc12` (single isomer, unassigned) [Example 14, 7-(3-methylmorpholino)-4-(o-tolyl)-2H-pyrano[2,3-b]pyridin-2-one]: 6.40. The same measure for `Cc1ccccc1-c1cc(=O)oc2nc(N3CCOCC3C)ccc12` (single isomer, unassigned) [Example 15, 7-(3-methylmorpholino)-4-(o-tolyl)-2H-pyrano[2,3-b]pyridin-2-one]: 5.70; for `COC1CCN(c2ccc3c(-c4ccccc4C)cc(=O)oc3n2)C1` (single isomer, unassigned) [Example 23, 7-(3-methoxypyrrolidin-1-yl)-4-(o-tolyl)-2H-pyrano[2,3-b]pyridin-2-one]: 7.05; for `COC1CCN(c2ccc3c(-c4ccccc4C)cc(=O)oc3n2)C1` (single isomer, unassigned) [Example 24, 7-(3-methoxypyrrolidin-1-yl)-4-(o-tolyl)-2H-pyrano[2,3-b]pyridin-2-one]: 5.52.

For `COC1CCN(c2ccc3c(-c4ccc(F)cc4Cl)cc(=O)oc3n2)C1` (single isomer, unassigned) [Example 25, 4-(2-chloro-4-fluorophenyl)-7-(3-methoxypyrrolidin-1-yl)-2H-pyrano[2,3-b]pyridin-2-one], the negative logarithm of the IC50 (pIC50) is 6.00. Compound `COC1CCN(c2ccc3c(-c4ccc(F)cc4Cl)cc(=O)oc3n2)C1` (single isomer, unassigned) [Example 26, 4-(2-chloro-4-fluorophenyl)-7-(3-methoxypyrrolidin-1-yl)-2H-pyrano[2,3-b]pyridin-2-one] showed a negative logarithm of the IC50 (pIC50) of 4.68.

In turn, `Cc1ccccc1-c1cc(=O)oc2nc(N3CCC(C)(O)C3)ccc12` (single isomer, unassigned) [Example 27, 7-(3-hydroxy-3-methylpyrrolidin-1-yl)-4-(o-tolyl)-2H-pyrano[2,3-b]pyridin-2-one] showed a pIC50 of 6.00. Take `Cc1ccccc1-c1cc(=O)oc2nc(N3CCC(C)(O)C3)ccc12` (single isomer, unassigned) [Example 28, 7-(3-hydroxy-3-methylpyrrolidin-1-yl)-4-(o-tolyl)-2H-pyrano[2,3-b]pyridin-2-one]: the pIC50 was 6.00. The result for `Cc1ccccc1-c1cc(=O)oc2nc(N3CCC(C(N)=O)C3)ccc12` (single isomer, unassigned) [Example 29, 1-(2-oxo-4-(o-tolyl)-2H-pyrano[2,3-b]pyridin-7-yl)pyrrolidine-3-carboxamide] reads 5.15; that for `Cc1ccccc1-c1cc(=O)oc2nc(N3CCC(C(N)=O)C3)ccc12` (single isomer, unassigned) [Example 30, 1-(2-oxo-4-(o-tolyl)-2H-pyrano[2,3-b]pyridin-7-yl)pyrrolidine-3-carboxamide], 6.05; that for `COCC1CCN(c2ccc3c(-c4ccccc4C)cc(=O)oc3n2)C1` (single isomer, unassigned) [Example 31, 7-(3-(methoxymethyl)pyrrolidin-1-yl)-4-(o-tolyl)-2H-pyrano[2,3-b]pyridin-2-one], 6.40. The same measure for `COCC1CCN(c2ccc3c(-c4ccccc4C)cc(=O)oc3n2)C1` (single isomer, unassigned) [Example 32, 7-(3-(methoxymethyl)pyrrolidin-1-yl)-4-(o-tolyl)-2H-pyrano[2,3-b]pyridin-2-one]: 6.00; for `Cc1ccccc1-c1cc(=O)oc2nc(N3CCC(C(=O)O)C3)ccc12` (single isomer, unassigned) [Example 33, 1-(2-oxo-4-(o-tolyl)-2H-pyrano[2,3-b]pyridin-7-yl)pyrrolidine-3-carboxylic acid]: 5.15; for `Cc1ccccc1-c1cc(=O)oc2nc(N3CCC(C(=O)O)C3)ccc12` (single isomer, unassigned) [Example 34, 1-(2-oxo-4-(o-tolyl)-2H-pyrano[2,3-b]pyridin-7-yl)pyrrolidine-3-carboxylic acid]: 4.70.

The compound `Cc1ccccc1-c1cc(=O)oc2nc(N3CCCC3C(=O)O)ccc12` (single isomer, unassigned) [Example 37, 1-(2-oxo-4-(o-tolyl)-2H-pyrano[2,3-b]pyridin-7-yl)pyrrolidine-2-carboxylic acid] showed a pIC50 of 6.70. For the compound `Cc1ccccc1-c1cc(=O)oc2nc(N3CCCC3C(=O)O)ccc12` (single isomer, unassigned) [Example 38, 1-(2-oxo-4-(o-tolyl)-2H-pyrano[2,3-b]pyridin-7-yl)pyrrolidine-2-carboxylic acid], the negative-log IC50 (pIC50) is 6.00. `Cc1ccccc1-c1cc(=O)oc2nc(N(C)C(C)C(N)=O)ccc12` (single isomer, unassigned) [Example 48, 2-(methyl(2-oxo-4-(o-tolyl)-2H-pyrano[2,3-b]pyridin-7-yl)amino)propanamide] had a pIC50 of 6.30. The result for `Cc1ccccc1-c1cc(=O)oc2nc(N(C)C(C)C(N)=O)ccc12` (single isomer, unassigned) [Example 49, 2-(methyl(2-oxo-4-(o-tolyl)-2H-pyrano[2,3-b]pyridin-7-yl)amino)propanamide] reads 6.00; that for `Cc1ccccc1-c1cc(=O)oc2nc(N(C)C)ccc12` [Example 01, 7-(dimethylamino)-4-(o-tolyl)-2H-pyrano[2,3-b]pyridin-2-one], 6.00.

On to `Cc1ccccc1-c1cc(=O)oc2nc(N3CCOCC3)ccc12` [Example 02, 7-morpholino-4-(o-tolyl)-2H-pyrano[2,3-b]pyridin-2-one], for which the pIC50 was 5.70.

Consider `Cc1ccccc1-c1cc(=O)oc2nc(N3CCCC3)ccc12` [Example 03, 7-(pyrrolidin-1-yl)-4-(o-tolyl)-2H-pyrano[2,3-b]pyridin-2-one], for which the pIC50 is 6.70. `COCCN(C)c1ccc2c(-c3ccccc3C)cc(=O)oc2n1` [Example 04, 7-((2-methoxyethyl)(methyl)amino)-4-(o-tolyl)-2H-pyrano[2,3-b]pyridin-2-one] showed a pIC50 of 5.70. `CCN(C)c1ccc2c(-c3ccccc3C)cc(=O)oc2n1` [Example 05, 7-(ethyl(methyl)amino)-4-(o-tolyl)-2H-pyrano[2,3-b]pyridin-2-one] showed a pIC50 of 6.40. Consider `CC(=O)N1CCN(c2ccc3c(-c4ccccc4C)cc(=O)oc3n2)CC1` [Example 06, 7-(4-acetylpiperazin-1-yl)-4-(o-tolyl)-2H-pyrano[2,3-b]pyridin-2-one], for which the negative-log IC50 (pIC50) was less than 4.00.
